Experimental data taken from US11160839B2, “Pediococcus pentosaceus CCFM1012 and application thereof to preparation of Campylobacter jejuni infection antagonism medicine” (Jiangnan University, priority 2018, dated 2021).

Test system: C. jejuni NCTC11168
Test: Oxford cup inhibition zone test of lactic acid bacteria fermented supernate on Columbia blood agar
Format: cell-based
Details: Campylobacter jejuni, positive control 0.30 mg/mL, 48 h at 37° C., read-out: Diameter of inhibition zone

SMILES: CCn1cc(C(=O)O)c(=O)c2cc(F)c(N3CCNCC3)cc21 [norfloxacin]
- zone of inhibition at 300 µg/mL: 19.7 ± 0.83 mm
